Measurements taken from patent US20230392121A1, “HYDROGELS FOR CELL CULTURE” (KATHOLIEKE UNIVERSITEIT LEUVEN, priority 2020, published 2023).
Where two headings read alike, the source gives them in different places.

Key:
[1] = system: HepMat co-cultures; test: Co-treatment of HepMat co-cultures with OA & OCA or OA & ELN; assay type: cell-based, human; conditions: 800 μM OA with 1 μM OCA or 30 μM ELN, 3 days
Protocol: A similar effect was observed on proinflammatory parameters.
(§1) Oleic acid (OA) exposure of HepMat-co-cultures and mono-cultures: Day 32 HepMat co-cultures and Day 32 HepMat HC3x HLC, HSC and Mφ mono-cultures were incubated with 800 μM of OA (Sigma-Aldrich) for 7 days (addition on day 0 and day 3). Day 32 HepMat co-cultures were also incubated with a combination 800 μM of OA and 1 μM Obeticholic acid (OCA) (Company) or 800 μM of OA and 30 μM Elafibranor (ELN) (Company) for 3 days (addition on day 0 only). Expression of inflammatory and fibrogenic genes was determined by RT-1PCR. Supernatants were collected for pro-collagen measurement by ELISA on day 3 and day 7. In addition, co-culture were assayed for presence of steatosis by BODIPY® staining on day 3 and day 7 as follows: Gels were transferred to Glass Bottom plates (cellvis) for live-cell imaging, following incubation with BODIPY® 493/503 for lipids (Thermo Fisher Scientific) and Hoechst (Sigma Aldrich). Sample was visualised and scanned on a laser scanning confocal microscope (LSM 880, Zeiss, Germany),
(§2) The supernatant was assayed for human TNF-alpha, ILla1pha, and IL6 by ELISA (Biolegend, CA, USA), according to the manufacturer's instructions. Presence of pro-collagen type I was detected by Pro-collagen Type I C-peptide ELISA kit (Takara Bio Inc). Secreted level of TNF-alpha, IL1alpha, IL6 and pro-collagen 1 were normalised for the cell number.

[2] = phase III; cited from earlier work
[3] = system: HepMat co-cultures; test: Oleic acid exposure of HepMat co-cultures (BODIPY, RT-qPCR, ELISA); assay type: cell-based, human
Protocol: (§3) d32 HepMat co-cultures were also exposed to 0.8 mM OA for 3 days (1 dose) and 7 days (2 doses).
as §1, §2

[4] = system: HC3x HLC, HSC and Mφ mono-cultures; test: Oleic acid exposure of HepMat mono-cultures; assay type: cell-based, human
Protocol: as §3, §1
The supernatant was assayed for human TNF-alpha, ILla1pha, and IL6 by ELISA (Biolegend, CA, USA), according to the manufacturer's instructions. Presence of pro-collagen type I was detected by Pro-collagen Type I C-peptide ELISA kit (Takara Bio Inc). […]

[5] = system: iETV2-ECs; test: Oleic acid treatment of iETV2-ECs; assay type: cell-based, human; conditions: OA treatment
Protocol: as §3

[6] = system: PSC-HSCs; test: TGFβ exposure of HepMat-PSC-HSC cultures (24 h); assay type: cell-based, human; conditions: 25 ng/mL TGFβ
Protocol: Day 12 HSC expressed ACTA2, PDG1FRα, COL1A1, COL3A1, COL5A2 and LOXL2 but low levels of LRAT (important for Vitamin-A metabolism in quiescent HSCs) and the more recently identified non-fibrotic HSC marker genes, RGS5 and IGFBP5 (FIGS. 3B and 3E). Accutase-harvested d12 PSC-HSCs were embedded at 3×10^5 cells/10 μl HepMat hydrogel, and maintained for 32 days in HSC medium. HSCs survived for 32 days in the HepMat hydrogel (Calcein-AM staining; FIG. 3B). […] Consistently, HSCs cultured in HepMat hydrogels stored retinol, as shown by BODIPY® staining and presence of typical blue autofluorescence elicited by UV light, even when cultured with low concentrations of palmitic acid (FIG. 3B). […] Thus, PSC-HSCs can be maintained for at least 32 days in the HepMat hydrogels. Moreover, culture of HSCs in these hydrogels may at least in part induce a less fibrotic HSC phenotype while still allowing TGFβ-mediated activation.
TGFβ exposure of HepMat-PSC-HSC cultures: Day 32 HepMat-PSC-HSC mono-cultures hydrogels were exposed to 25 ng/ml of TGFβ (Peprotech) on day 32. Expression of inflammatory and fibrogenic genes was determined by RT-1PCR. Supernatants were collected for pro-collagen measurement by ELISA.

[7] = system: HepMat co-cultures; test: TGFβ exposure of HepMat co-cultures (RT-qPCR, ELISA); assay type: cell-based, human
Protocol: (§4) It was investigated whether HepMat co-cultures could be used to model liver fibrosis/steatosis, by exposing cultures either to TGFβ or oleic acid (OA). d32 HepMat co-cultures were treated with 25 ng/ml of TGFβ for an additional 3 days (single administration) or 7 days (2 administrations). […] In addition, TGFβ induced a 7±0.4-fold higher level of pro-collagen and 17±3.4-fold higher level of IL6 on day 7 of treatment in HepMat co-culture supernatants. Pro-collagen levels were unchanged in HC3x-HLCs and PSC-Mφ mono-cultures and ±3-fold increase in PSC-HSCs following 3 and 7 days of treatment with TGFβ.
(§5) TGFβ exposure of HepMat-co-cultures and mono-cultures: Day 32 HepMat co-cultures and dayy 32 HepMat HC3x HLC, HSC and Mφ mono-cultures were incubated with 25 ng/ml TGFβ for 7 days (addition on day 0 and day 3). Expression of inflammatory and fibrogenic genes was determined by RT-qPCR. Supernatants were collected for pro-collagen measurement by ELISA.
as §2

[8] = system: HC3x-HLCs; test: TGFβ exposure of HC3x-HLC HepMat mono-cultures; assay type: cell-based, human
Protocol: as §4, §5, §2

[9] = system: PSC-HSCs; test: TGFβ exposure of PSC-HSC HepMat mono-cultures (3 and 7 days); assay type: cell-based, human
Protocol: as §4, §5, §2

[10] = system: PSC-Mφs; test: TGFβ exposure of PSC-Mφ HepMat mono-cultures; assay type: cell-based, human; conditions: supernatants
Protocol: as §4, §5, §2

[11] = system: iETV2-ECs; assay type: cell-based, human
[12] = system: PSC-Mφs; test: LPS exposure of HepMat-PSC-Mφ cultures; assay type: cell-based, human; conditions: 100 ng/ml LPS
Protocol: Mφs were generated from PSCs, using a protocol adapted from van Wilgenburg et al. (2013) PLoS One. 8, e71098 (FIG. 3C). […] Thus, PSC-Mφs could also be functionally maintained for at least 32 days in HepMat hydrogels.
LPS exposure of HepMat-PSC-MEs cultures: Day 32 HepMat-PSC-M[…]s mono-cultures were exposed to 100 ng/ml of LPS (Sigma-Aldrich). Expression of inflammatory genes was determined by RT-qPCR. Supernatants were collected for inflammatory cytokine measurement by ELISA.

[13] = 25 ng/ml TGFβ, d32 HepMat co-cultures

In the case of `CSc1ccc(C(=O)/C=C/c2cc(C)c(OC(C)(C)C(=O)O)c(C)c2)cc1` [ELN, elafibranor], the COL1A1 transcript levels [1] is reported as “inhibited”, the IL6 transcripts [1] is reported as “significantly reduced” and the bodipy staining [1] is reported as “significant reduction”. The “pro-collagen secretion in culture supernatants” value [1] was “no effect”, the “production of secreted IL6” value [1] was “did not inhibit” and the “improvement of liver fibrosis compared to placebo” value [2] was “not significantly improve”.

In the case of `CCCCCCCC/C=C\CCCCCCCC(=O)O` [OA, oleic acid], the IL6 expression ([3]; 0.8 mM OA, d3) is reported as 1200 fold, the IL6 expression ([3]; 0.8 mM OA, d7) is reported as 1000 fold and the “lipid accumulation, BODIPY staining” value ([3]; 0.8 mM OA, day 3, persisted until day 7) is reported as “significant lipid accumulation”. For the same molecule, the “induction of COL1A1, COL1A3, COL5A2 as well as LOXL2” value ([3]; 0.8 mM OA, day 7) was “even greater induction”, the “increase in pro-collagen in supernatants” value ([3]; 3 day after administration of OA) was 5±0.5 fold and the “increase in pro-collagen in supernatants” value ([3]; 7 day after administration of OA) was 12±1.5 fold. The “increase in IL6 in supernatants” value ([3]; day 7) was 90±5 fold, the “pro-collagen or inflammatory cytokines in supernatants” value ([4]; any of the mono-cultures) was “no significant changes” and the “induction in COL1A1 and COL3A1 transcripts” value ([4]; mono-cultures, 3 days after OA addition) was ~9 fold. For the same molecule, the “survival of iETV2-ECs” value [5] was “did not survive”.

For TGFβ, the “secreted levels of pro-collagen” value ([6]; ELISA) was “significantly higher levels”, the LRAT transcript levels ([6]; d32 HepMat HSCs) was “significant decrease” and the “expression of COL1A1” value ([6]; d32 HepMat HSCs) was “significant increase”. The “increase in transcripts for COL1A1” value [7, 13] was 17±3.5 fold, the “increase in transcripts for COL3A1” value [7, 13] was 13±3.4 fold and the “increase in transcripts for COL5A2 or LOXL2” value [7, 13] was “but not COL5A2 or LOXL2”. For the same molecule, the “induction of IL1α transcripts” value ([7]; TGFβ exposure for 7 days) was 7±0.49 fold, the “induction of IL6 transcripts” value ([7]; TGFβ exposure for 7 days) was 13±4.3 fold and the “higher level of IL6 in supernatants” value ([7]; day 7 of treatment, ELISA) was 17±3.4 fold. The “higher level of pro-collagen in supernatants” value ([7]; day 7 of treatment, ELISA) was 7±0.4 fold, the “induction of COL1A1 transcripts” value ([8]; 3 days treatment) was 9±1.6 fold and the “induction of COL1A1 transcripts” value ([8]; 7 days treatment) was 5±0.7 fold. For the same molecule, the Pro-collagen levels ([8]; TGFβ, supernatants) was “unchanged”, the “increase in pro-collagen levels” value ([9]; 3 and 7 days of treatment with TGFβ) was ~3 fold and the “induction of COL1A1 and COL3A1 transcripts” value ([9]; d3) was 4±1.1 fold. The Pro-collagen levels [10] was “unchanged” and the “survival of iETV2-ECs” value [11] was “did not survive”.

With lipopolysaccharide [LPS] the “secretion of TNFα, IL1α and IL6” value ([12]; ELISA, significant for IL6) was “increased secretion of all three cytokines” and the “expression of TNFα, IL1α and IL6” value ([12]; additional 48 hours, RT-qPCR) was “significantly induced”.
